Entries after “also recorded” stand apart in the source; their conditions may differ.
How the values were obtained:
[1] = system: patients with stable cardiovascular disease receiving single or dual antiplatelet therapy; conditions: in vivo; cited from earlier work
[2] = system: patients with stable cardiovascular disease; conditions: in vivo; cited from earlier work
[3] = system: patients with stable atherosclerotic vascular disease (coronary artery disease, peripheral arterial disease, or both); test: COMPASS trial, efficacy outcomes; format: in vivo, human; conditions: for participants reported to have atrial fibrillation who had a stroke: 26 of the 392 participants with atrial fibrillation; for primary outcome event of cardiovascular death, stroke, or myocardial infarction, number of patients / primary outcome event of cardiovascular death, stroke, or myocardial infarction, percentage of patients: rivaroxaban alone 5 mg twice daily, mean follow-up 23 months; for primary outcome / major adverse cardiovascular events compared with aspirin alone (in words): compared with aspirin alone 100 mg once daily
Description: Patients were eligible if they provided written informed consent and met the criteria for coronary artery disease, peripheral arterial disease, or both. Patients with coronary artery disease who were younger than 65 years of age were also required to have documentation of atherosclerosis involving at least two vascular beds or to have at least two additional risk factors (current smoking, diabetes mellitus, an estimated glomerular filtration rate (“GFR”)<60 ml per minute, heart failure, or nonlacunar ischemic stroke≥1 month earlier). Exclusion criteria were a high bleeding risk; a recent stroke or previous hemorrhagic or lacunar stroke; severe heart failure; advanced stable kidney disease (estimated GFR<15 ml per minute); the use of dual antiplatelet therapy, anticoagulation, or other antithrombotic therapy; and noncardiovascular conditions deemed by the investigator to be associated with a poor prognosis.
Eligible participants (except those who underwent randomization 4 to 14 days after coronary-artery bypass graft (“CABG”) surgery) entered a run-in phase during which they received a rivaroxaban-matched placebo twice daily and aspirin at a dose of 100 mg once daily. The purpose of the run-in phase was to identify participants who were unwilling or unable to adhere to the trial regimen, who had adverse events, or who were otherwise not suitable for randomization. Patients who underwent randomization 4 to 14 days after CABG surgery were not required to participate in the run-in phase because thrombotic graft occlusion is most common during the first few weeks after surgery and we sought to enroll such patients promptly.
(§1) Study aspirin was enteric-coated.
(§2) Three secondary efficacy outcomes were specified: the composite of ischemic stroke, myocardial infarction, acute limb ischemia, or death from coronary heart disease; the composite of ischemic stroke, myocardial infarction, acute limb ischemia, or cardiovascular death; and death from any cause. Tertiary efficacy outcomes included individual components of the primary and secondary outcomes, as well as hospitalization for cardiovascular causes, revascularization, limb amputation, stent thrombosis, angina, heart failure, venous thromboembolism, resuscitated cardiac arrest, and a new diagnosis of cancer. The net-clinical-benefit outcome was the composite of cardiovascular death, stroke, myocardial infarction, fatal bleeding, or symptomatic bleeding into a critical organ.
All the outcome events in all randomly assigned patients that occurred between randomization and the date of stopping the trial were included in the analysis, according to the intention-to-treat principle. An early stop of both antithrombotic treatment groups for efficacy had not been anticipated, and therefore a strategy for formal testing of secondary outcomes at the interim analysis was not prespecified.
(§3) All reported P values are two-sided.

[4] = system: patients with stable atherosclerotic vascular disease (coronary artery disease, peripheral arterial disease, or both); test: COMPASS trial, net-clinical-benefit outcome; format: in vivo, human
Text: “Safe” for the methods disclosed herein may also be measured by the net clinical benefit of the inventive method or product compared to administration of aspirin alone. The net clinical benefit outcome consists of cardiovascular death, myocardial infarction, stroke, and fatal or critical organ bleeding.
Because the products and methods of the present invention involve medications that cause the desired reduction in the risk of myocardial infarction, stroke, or cardiovascular death yet also cause undesired bleeding, the “net clinical benefit” of the therapy is important to consider. The “net clinical benefit” composite is a positive benefit risk ratio that was derived using severe bleeding events (intracranial bleeding, fatal bleeding, and critical organ bleeding) as a component of the composite. In clinical studies, the risk of the composite net clinical benefit outcome of cardiovascular death, stroke, myocardial infarction, fatal bleeding or symptomatic bleeding into a critical organ was lower with twice-daily 2.5 mg rivaroxaban combined with once daily 100 mg aspirin (4.7%) than with aspirin alone (100 mg once daily) (5.9%), hazard ratio 0.80.
as §1, §2, §3

[5] = system: patients with a recent acute coronary syndrome; conditions: background of single or dual antiplatelet therapy, cited from earlier work
[6] = system: patients with stable atherosclerotic vascular disease (coronary artery disease, peripheral arterial disease, or both); conditions: human, in vivo, 23 months
Text: Adverse events that impact whether the inventive combinations and combination therapy are safe are adverse bleeding events that include, for example, major bleeding, minor bleeding, intracranial bleeding, and symptomatic bleeding into a critical organ. “Major bleeding” as used herein is a modification of the International Society on Thrombosis and Haemostasis (ISTH) criteria for major bleeding and includes fatal bleeding, symptomatic bleeding into a critical organ, bleeding into a surgical site requiring reoperation, and bleeding that led to hospitalization (including presentation to an acute care facility without an overnight stay). Unlike the ISTH criteria, all bleeding that led to presentation to an acute care facility or hospitalization is considered as major.
The COMPASS trial, conducted at 602 centers in 33 countries, is a double-blind, double-dummy, randomized trial using a 3-by-2 partial factorial design and involving patients with a history of stable atherosclerotic vascular disease. […]

[7] = system: patients with stable peripheral arterial disease; conditions: in vivo; cited from earlier work
[8] = rivaroxaban 2.5 mg twice daily + aspirin 100 mg once daily, aspirin alone 100 mg once daily

SMILES: CCOC(=O)N[C@@H]1CC[C@@H]2[C@@H](C1)C[C@H]1C(=O)O[C@H](C)[C@H]1[C@H]2/C=C/c1ccc(-c2cccc(F)c2)cn1 [vorapaxar]
- mortality vs placebo [1]: no significant between-group difference
- rate of major adverse cardiovascular events vs placebo [1]: lower rate
- rate of moderate or severe bleeding vs placebo [1]: higher rate

SMILES: COC(=O)[C@H](c1ccccc1Cl)N1CCc2sccc2C1 [clopidogrel]
- risk of cardiovascular death or death from any cause vs aspirin [2]: no significant difference
- risk of major adverse cardiovascular events vs aspirin [2]: lower risk

SMILES: CC(=O)Oc1ccccc1C(=O)O [aspirin alone, acetylsalicylic acid]
- participants reported to have atrial fibrillation who had a stroke [3]: 11 participants
- deaths (death from any cause), number [3, 8]: 378 deaths
- deaths (death from any cause), percentage [3, 8]: 4.1%
- secondary composite outcome of ischemic stroke, myocardial infarction, acute limb ischemia, or death from coronary heart disease, number of patients [3, 8]: 450 patients
- secondary composite outcome of ischemic stroke, myocardial infarction, acute limb ischemia, or death from coronary heart disease, percentage of patients [3, 8]: 4.9%
- secondary outcome of ischemic stroke, myocardial infarction, acute limb ischemia, or cardiovascular death, number of patients [3, 8]: 516 patients
- secondary outcome of ischemic stroke, myocardial infarction, acute limb ischemia, or cardiovascular death, percentage of patients [3, 8]: 5.7%
- primary outcome event of cardiovascular death, stroke, or myocardial infarction, number of patients [3, 8]: 496 patients
- primary outcome event of cardiovascular death, stroke, or myocardial infarction, percentage of patients [3, 8]: 5.4%
- composite net-clinical-benefit outcome of cardiovascular death, stroke, myocardial infarction, fatal bleeding, or symptomatic bleeding into a critical organ, number of patients [4, 8]: 534 patients
- composite net-clinical-benefit outcome of cardiovascular death, stroke, myocardial infarction, fatal bleeding, or symptomatic bleeding into a critical organ, percentage of patients [4, 8]: 5.9%

SMILES: O=C(NC[C@H]1CN(c2ccc(N3CCOCC3=O)cc2)C(=O)O1)c1ccc(Cl)s1 [rivaroxaban alone, 5-chloro-N-({(5S)-2-oxo-3-[4-(3-oxo-4-morpholinyl)phenyl]-1,3-oxazolidin-5-yl}methyl)-2-thiophenecarboxamide]
- rate of major adverse cardiovascular events vs placebo ([5]; 2.5 mg twice daily or 5 mg twice daily): lower rate
- mortality vs placebo ([5]; 2.5 mg twice daily): lower mortality
- hazard ratio, major bleeding events (modified ISTH criteria) [6]: 1.51
- participants reported to have atrial fibrillation who had a stroke [3]: 8 participants
- primary outcome / major adverse cardiovascular events compared with aspirin alone (in words) [3]: did not show a significant difference
- primary outcome / major adverse cardiovascular events compared with aspirin alone (in words) ([3]; listed as Rivaroxaban): not associated with a significant reduction
- primary outcome / major adverse cardiovascular events compared with aspirin alone (in words) ([3]; listed as Rivaroxaban alone): did not result in a significantly lower risk
- hazard ratio for the primary outcome ([3]; compared with aspirin alone, stratified Cox model): 0.90
- primary outcome event of cardiovascular death, stroke, or myocardial infarction, number of patients [3, 8]: 448 patients
- primary outcome event of cardiovascular death, stroke, or myocardial infarction, percentage of patients [3, 8]: 4.9%
- net-clinical-benefit outcome compared with aspirin alone (in words) ([4]; rivaroxaban alone 5 mg twice daily vs aspirin alone): not significantly lower; also recorded: did not show a significant difference

SMILES: CCCSc1nc(N[C@@H]2C[C@H]2c2ccc(F)c(F)c2)c2nnn([C@@H]3C[C@H](OCCO)[C@@H](O)[C@H]3O)c2n1 [ticagrelor]
- rate of major adverse cardiovascular events vs clopidogrel [7]: did not result in a significantly lower rate

— patent US10828310B2, “Reducing the risk of cardiovascular events” (Bayer Pharma Aktiengesellschaft, priority 2018, dated 2020)
